The record followed here is PMC4710668, “Bioactivation of food genotoxicants 5-hydroxymethylfurfural and furfuryl alcohol by sulfotransferases from human, mouse and rat: a comparative study” (Archives of Toxicology, 2014).

Values joined by “and” are separate entries in the source; they are usually repeats but may differ in a detail not shown here. Equal entries are not always repeated. Marks after values point to notes of the source that are not given here.

Holding throughout (experiment): FFA sulfoconjugation assay (N6-MF-A formation with adenosine as scavenger)
Holding throughout (type): biochemical

One assay deals with T1, mSult1b1 (Mus musculus, UniProt Q9QWG7).
T1 construct: made in house; host or cells: Salmonella typhimurium TA1538 (cytosolic fraction, enzyme not purified)
T1 sequence (Q9QWG7 whole entry): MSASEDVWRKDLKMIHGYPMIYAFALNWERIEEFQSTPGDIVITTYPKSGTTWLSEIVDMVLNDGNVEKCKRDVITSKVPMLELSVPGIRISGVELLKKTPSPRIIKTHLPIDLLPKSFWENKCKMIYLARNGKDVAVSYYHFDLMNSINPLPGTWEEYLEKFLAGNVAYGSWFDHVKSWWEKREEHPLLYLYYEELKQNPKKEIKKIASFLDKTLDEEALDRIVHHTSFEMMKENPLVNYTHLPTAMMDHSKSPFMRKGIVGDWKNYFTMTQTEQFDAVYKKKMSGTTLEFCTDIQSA
Put shortly:
(§1)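 Cytosols from S. typhimurium TA1538 expressing individual SULTs are incubated at 37 °C for 20 min with FFA plus 10 mM adenosine. Reactions are quenched in methanol containing [15N5]N6-MF-A, and supernatants are analysed by UPLC-MS/MS. Spontaneous, SULT-independent adduct formation is corrected using SULT-deficient cytosols.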

In the next assay the target is T2, hSULT1A3 (Homo sapiens, UniProt P0DMM9).
T2 construct: made in house; host or cells: Salmonella typhimurium TA1538 (cytosolic fraction, not purified)
T2 sequence (P0DMM9 whole entry): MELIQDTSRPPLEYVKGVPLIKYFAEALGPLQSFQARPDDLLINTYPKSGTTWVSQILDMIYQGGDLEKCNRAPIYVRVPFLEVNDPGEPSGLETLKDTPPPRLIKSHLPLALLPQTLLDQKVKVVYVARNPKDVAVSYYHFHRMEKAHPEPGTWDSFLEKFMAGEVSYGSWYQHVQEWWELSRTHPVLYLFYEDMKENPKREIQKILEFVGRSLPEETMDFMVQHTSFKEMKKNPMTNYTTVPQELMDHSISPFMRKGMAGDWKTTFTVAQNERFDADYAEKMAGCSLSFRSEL
Put shortly: as §1

For another assay, the target named is T3, rSult2a1 (Rattus norvegicus, UniProt P15709).
T3 construct: made in house; host or cells: Salmonella typhimurium TA1538 (cytosolic fraction, enzyme not purified)
T3 sequence (P15709 1-284): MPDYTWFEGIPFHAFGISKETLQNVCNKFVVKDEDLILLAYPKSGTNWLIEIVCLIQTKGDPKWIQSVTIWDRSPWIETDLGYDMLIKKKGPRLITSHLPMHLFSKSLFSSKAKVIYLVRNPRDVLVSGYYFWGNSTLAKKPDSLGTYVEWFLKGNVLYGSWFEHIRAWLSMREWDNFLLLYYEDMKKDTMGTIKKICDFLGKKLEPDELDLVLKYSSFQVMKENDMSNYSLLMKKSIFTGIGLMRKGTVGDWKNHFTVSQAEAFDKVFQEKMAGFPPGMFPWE
In outline:
as §1

The next assay concerns the target T4, hSULT1B1 (Homo sapiens, UniProt O43704).
T4 construct: made in house; host or cells: Salmonella typhimurium TA1538 (cytosolic fraction, not purified)
Put shortly:
as §1

The target of the next assay is T5, rSult1a1 (Rattus norvegicus, UniProt P17988).
T5 construct: made in house; host or cells: Salmonella typhimurium TA1538 (cytosolic fraction, enzyme not purified)
T5 sequence (P17988 whole entry): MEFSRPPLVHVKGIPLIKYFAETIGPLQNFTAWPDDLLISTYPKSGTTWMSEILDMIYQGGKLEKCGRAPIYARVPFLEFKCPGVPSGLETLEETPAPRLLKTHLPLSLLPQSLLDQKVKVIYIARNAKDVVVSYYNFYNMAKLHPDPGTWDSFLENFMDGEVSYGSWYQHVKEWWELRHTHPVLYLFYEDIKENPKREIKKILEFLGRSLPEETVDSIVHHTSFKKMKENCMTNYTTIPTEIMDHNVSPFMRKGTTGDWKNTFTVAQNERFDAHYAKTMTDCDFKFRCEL
The note with it: 1 mM FFA. In outline: as §1

A further assay has as its target T6, hSULT1C3 (Homo sapiens, UniProt Q6IMI6).
T6 construct: made in house; host or cells: Salmonella typhimurium TA1538 (cytosolic fraction, not purified)
In outline: as §1

The target of the next assay is T7, hSULT2B1a (Homo sapiens, UniProt O00204).
T7 construct: made in house; host or cells: Salmonella typhimurium TA1538 (cytosolic fraction, not purified)
T7 sequence (O00204 1-350 isoform O00204-2): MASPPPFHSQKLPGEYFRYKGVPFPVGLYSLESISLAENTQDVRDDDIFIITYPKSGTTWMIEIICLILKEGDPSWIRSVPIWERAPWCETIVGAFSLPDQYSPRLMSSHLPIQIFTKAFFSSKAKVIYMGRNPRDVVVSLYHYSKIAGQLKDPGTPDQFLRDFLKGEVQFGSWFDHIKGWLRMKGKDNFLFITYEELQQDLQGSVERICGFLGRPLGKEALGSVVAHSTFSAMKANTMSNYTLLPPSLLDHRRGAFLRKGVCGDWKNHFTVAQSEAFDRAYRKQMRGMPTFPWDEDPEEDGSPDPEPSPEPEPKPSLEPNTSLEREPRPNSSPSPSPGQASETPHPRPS
Put shortly: as §1

Setting [1] is: 1 mM FFA, corrected by actual SULT concentration in the cytosolic preparation.

T6 sequence (Q6IMI6 whole entry): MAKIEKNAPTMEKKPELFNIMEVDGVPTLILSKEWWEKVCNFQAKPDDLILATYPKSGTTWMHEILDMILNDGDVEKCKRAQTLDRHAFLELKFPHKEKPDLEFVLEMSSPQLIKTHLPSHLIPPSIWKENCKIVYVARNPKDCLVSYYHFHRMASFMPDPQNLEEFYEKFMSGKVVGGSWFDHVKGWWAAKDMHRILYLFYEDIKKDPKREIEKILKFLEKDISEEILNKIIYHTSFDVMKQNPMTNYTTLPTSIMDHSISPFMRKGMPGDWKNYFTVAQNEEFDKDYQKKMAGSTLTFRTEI
T4 sequence (O43704 whole entry): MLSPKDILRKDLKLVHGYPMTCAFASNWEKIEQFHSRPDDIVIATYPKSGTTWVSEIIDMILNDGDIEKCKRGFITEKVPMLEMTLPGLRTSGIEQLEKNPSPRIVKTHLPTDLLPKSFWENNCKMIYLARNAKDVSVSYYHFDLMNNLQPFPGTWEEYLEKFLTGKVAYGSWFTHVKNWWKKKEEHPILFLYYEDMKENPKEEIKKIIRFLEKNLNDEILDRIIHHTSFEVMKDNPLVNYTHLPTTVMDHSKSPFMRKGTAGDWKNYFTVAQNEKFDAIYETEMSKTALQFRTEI

For the compound `OCc1ccco1` [FFA, furfuryl alcohol], the “Rate of N6-MF-A formation” value was <18 fmol N ^6-MF-A/mg/min on mSult1b1 (0.1 mM FFA); 74.3 ± 1.6 fmol N ^6-MF-A/mg/min at mSult1b1 (10 mM FFA); 27.3 ± 0.5 fmol N ^6-MF-A/mg/min at hSULT1A3 (1 mM FFA); 226 ± 3 fmol N ^6-MF-A/mg/min at hSULT1A3 (10 mM FFA); <18 fmol N ^6-MF-A/mg/min on rSult2a1 (0.1 mM FFA); 24.8 ± 1.4 fmol N ^6-MF-A/mg/min on rSult2a1 (1 mM FFA). Also, the “Rate of N6-MF-A formation” value at rSult2a1 (10 mM FFA) is reported as 228 ± 7 fmol N ^6-MF-A/mg/min; on hSULT1B1 (0.1 mM FFA), 23.3 ± 0.3 fmol N ^6-MF-A/mg/min; on hSULT1B1 (1 mM FFA), 211 ± 2 fmol N ^6-MF-A/mg/min; at hSULT1B1 (10 mM FFA) it was 1,070 ± 20 fmol N ^6-MF-A/mg/min; at rSult1a1 it was 31.8 ± 0.8 fmol N ^6-MF-A/mg/min; at hSULT1C3 (0.1 mM FFA), <18 fmol N ^6-MF-A/mg/min. Moreover, the “Rate of N6-MF-A formation” value is listed as 61.8 ± 0.3 fmol N ^6-MF-A/mg/min on hSULT1C3 (1 mM FFA); 248 ± 3 fmol N ^6-MF-A/mg/min on hSULT1C3 (10 mM FFA); <18 fmol N ^6-MF-A/mg/min at hSULT2B1a (0.1 mM FFA); <20 fmol N ^6-MF-A/mg/min on hSULT2B1a (1 mM FFA); <44 fmol N ^6-MF-A/mg/min at hSULT2B1a (10 mM FFA). The “Rate of N6-MF-A formation (corr.)” value on hSULT1A3 (setting [1]) is 1,950 ± 30 fmol N ^6-MF-A/mg/min; at hSULT1B1 (setting [1]) it was 5,010 ± 50 fmol N ^6-MF-A/mg/min; at rSult1a1 (corrected by actual SULT concentration in the cytosolic preparation), 24,400 fmol N ^6-MF-A/mg/min and 24,400 ± 600 fmol N ^6-MF-A/mg/min; at hSULT1C3 (1 mM FFA, corrected by SULT concentration reported in Meinl et al. [2006]), 3,090 ± 10^b fmol N ^6-MF-A/mg/min. Besides, on rSult1a1 (corrected rates), the “ratio of N6-MF-A formation, rSult1a1 vs rSult1b1” value is given as ~71 fold. Further, the “ratio of N6-MF-A formation, rSult1a1 vs rSult1c1” value at rSult1a1 (corrected rates) is given as “about 6 fold”.
